# Laboratory results taken from US20220152101A1, “CELLULAR IMMUNOTHERAPY COMBINATION” (CARSGEN THERAPEUTICS CO., LTD., priority 2019, published 2022).
# System: Panc02/Luc-GFP-Claudin 18.2 cells
# Experiment: In vivo inhibitory effect of Gemcitabine combined with CAR T cells on in situ mouse pancreatic cancer
# Design: species or system C57BL/6 mice
# Method: The pancreases of 6-week-old C57BL/6 mice are inoculated with 2×10^5 Panc02/Luc-GFP-Claudin 18.2 cells in situ, and is recorded as Day 0 in the tumor cell inoculation diary.
# On the 6th day after tumor inoculation (i.e., Day 6), mouse T cells are taken and constructed according to Example 1 to construct the 8E5-2I-mBBZ CAR T cell line. At the same time, the mice are subjected to in vivo imaging, and the mice are randomly grouped according to the tumor burden of the mice. The main groups are:
# Group 1: UTD group, that is, the group administrated only untransfected mouse T cell treatment;
# Group 2: CART group, that is, the group administrated only 8E5-2I-mBBZ CAR T cell therapy;
# Group 3: Gemcitabine group, that is, the group administrated only Gemcitabine; and
# Group 4: Gemcitabine+CART group, that is, the group administrated 8E5-2I-mBBZ CAR T cells combined with Gemcitabine treatment.
# On the 6th, 7th, and 8th day (i.e., Day 6, 7, and 8), mice in the Gemcitabine group and Gemcitabine+CART group are administrated 30 mg/kg Gemcitabine for treatment, intraperitoneal administration, once a day. […]
smiles,measurement,setting,value
"Cl.Nc1ccn([C@@H]2O[C@H](CO)[C@@H](O)C2(F)F)c(=O)n1 [Gemcitabine, 2′-deoxy-2′, 2′-difluorocytidine hydrochloride]",tumor burdens compared to the UTD group,"Day 13, in vivo imaging, FIG. 2, Gemcitabine 30 mg/kg i.p. Day 6-8, 3×10^6 CAR-T cells tail vein Day 9",significantly decreased
same,tumor growth (in vivo imaging data),"FIG. 3, Gemcitabine+CART compared with the UTD group, P<0.05",continue to grow
